Test results as given in the NIST ThermoML archive (doi:10.1021/acs.jced.8b00921).
Numbers after ± are expanded uncertainties.

Assay: xn = mol fraction of the nth substance listed
Details: Gas, isochoric method

C=CC(F)(F)F [1,1,1-trifluoro-2-propene] + CC(C)C
Details	specific volume [m3/kg]
303.15 K, 47.6 kPa, x2 = 0.282	0.6134 ± 0.11
303.15 K, 169.8 kPa, x2 = 0.898	0.2302 ± 0.0041
308.15 K, 48.4 kPa, x2 = 0.282	0.6136 ± 0.0091
308.15 K, 172.8 kPa, x2 = 0.898	0.2303 ± 0.0041
308.15 K, 192.7 kPa, x2 = 0.434	0.1611 ± 0.0041
308.15 K, 289.5 kPa, x2 = 0.225	0.0942 ± 0.0093
313.15 K, 49.2 kPa, x2 = 0.282	0.6137 ± 0.0088
313.15 K, 175.8 kPa, x2 = 0.898	0.2303 ± 0.0041
313.15 K, 196 kPa, x2 = 0.434	0.1611 ± 0.004
313.15 K, 294.8 kPa, x2 = 0.225	0.0943 ± 0.0093
318.15 K, 50 kPa, x2 = 0.282	0.6139 ± 0.0085
318.15 K, 178.7 kPa, x2 = 0.898	0.2304 ± 0.0041
318.15 K, 199.4 kPa, x2 = 0.434	0.1611 ± 0.004
318.15 K, 300.1 kPa, x2 = 0.225	0.0943 ± 0.0094
323.15 K, 50.8 kPa, x2 = 0.282	0.614 ± 0.0082
323.15 K, 181.7 kPa, x2 = 0.898	0.2304 ± 0.0041
323.15 K, 202.4 kPa, x2 = 0.434	0.1612 ± 0.0039
323.15 K, 305.3 kPa, x2 = 0.225	0.0943 ± 0.0093
328.15 K, 51.6 kPa, x2 = 0.282	0.6141 ± 0.0079
328.15 K, 184.7 kPa, x2 = 0.898	0.2305 ± 0.0041
328.15 K, 205.9 kPa, x2 = 0.434	0.1612 ± 0.0039
328.15 K, 310.5 kPa, x2 = 0.225	0.0943 ± 0.0093
333.15 K, 52.4 kPa, x2 = 0.282	0.6143 ± 0.0075
333.15 K, 187.6 kPa, x2 = 0.898	0.2305 ± 0.004
333.15 K, 209.4 kPa, x2 = 0.434	0.1613 ± 0.0039
333.15 K, 315.8 kPa, x2 = 0.225	0.0943 ± 0.0094
338.15 K, 53.2 kPa, x2 = 0.282	0.6144 ± 0.0073
338.15 K, 190.4 kPa, x2 = 0.898	0.2306 ± 0.0041
338.15 K, 212 kPa, x2 = 0.434	0.1613 ± 0.0038
338.15 K, 320.9 kPa, x2 = 0.225	0.0944 ± 0.0094
343.15 K, 54 kPa, x2 = 0.282	0.6145 ± 0.007
343.15 K, 193.4 kPa, x2 = 0.898	0.2306 ± 0.0041
343.15 K, 215.5 kPa, x2 = 0.434	0.1613 ± 0.0038
343.15 K, 326.1 kPa, x2 = 0.225	0.0944 ± 0.0094
348.15 K, 54.8 kPa, x2 = 0.282	0.6147 ± 0.0067
348.15 K, 196.3 kPa, x2 = 0.898	0.2307 ± 0.004
348.15 K, 218.9 kPa, x2 = 0.434	0.1614 ± 0.0038
348.15 K, 331.3 kPa, x2 = 0.225	0.0944 ± 0.0094
353.15 K, 55.6 kPa, x2 = 0.282	0.6148 ± 0.0064
353.15 K, 199.4 kPa, x2 = 0.898	0.2307 ± 0.004
353.15 K, 222.4 kPa, x2 = 0.434	0.1614 ± 0.0037
353.15 K, 336.5 kPa, x2 = 0.225	0.0944 ± 0.0094
358.15 K, 56.4 kPa, x2 = 0.282	0.6149 ± 0.0062
358.15 K, 202.3 kPa, x2 = 0.898	0.2308 ± 0.004
358.15 K, 225 kPa, x2 = 0.434	0.1614 ± 0.0037
358.15 K, 341.6 kPa, x2 = 0.225	0.0944 ± 0.0094
363.15 K, 57.2 kPa, x2 = 0.282	0.6151 ± 0.006
363.15 K, 205.3 kPa, x2 = 0.898	0.2308 ± 0.004
363.15 K, 228.5 kPa, x2 = 0.434	0.1615 ± 0.0037
363.15 K, 346.8 kPa, x2 = 0.225	0.0945 ± 0.0094
368.15 K, 58.1 kPa, x2 = 0.282	0.6152 ± 0.0057
368.15 K, 208.1 kPa, x2 = 0.898	0.2309 ± 0.004
368.15 K, 231.9 kPa, x2 = 0.434	0.1615 ± 0.0037
368.15 K, 351.9 kPa, x2 = 0.225	0.0945 ± 0.0094
373.15 K, 58.8 kPa, x2 = 0.282	0.6153 ± 0.0055
373.15 K, 211.1 kPa, x2 = 0.898	0.2309 ± 0.0039
373.15 K, 235.2 kPa, x2 = 0.434	0.1615 ± 0.0037
373.15 K, 357.1 kPa, x2 = 0.225	0.0945 ± 0.0096
378.15 K, 59.7 kPa, x2 = 0.282	0.6155 ± 0.0054
378.15 K, 213.4 kPa, x2 = 0.898	0.231 ± 0.0039
378.15 K, 236.9 kPa, x2 = 0.434	0.1616 ± 0.0036
378.15 K, 362.3 kPa, x2 = 0.225	0.0945 ± 0.0096
383.15 K, 60.5 kPa, x2 = 0.282	0.6156 ± 0.0051
383.15 K, 217.1 kPa, x2 = 0.898	0.231 ± 0.0042
383.15 K, 240.1 kPa, x2 = 0.434	0.1616 ± 0.0036
383.15 K, 367.5 kPa, x2 = 0.225	0.0946 ± 0.0094
